Results from PubChem BioAssay AID248 (DTP/NCI, 2004).
“And” between values parts separate entries of the source, which are not always exact repeats. Equal entries are not always repeated. Inconclusive results and toxic doses are left out. No stated cut-off is given here; in the data, active means T/C of 150% or more; inactive means T/C below 125%.

Test system: L1210 leukemia ip in BDF1 mice, survival T/C
Assay: NCI In Vivo Anticancer Drug Screen. Data for tumor model L1210 Leukemia (intraperitoneal) in B6D2F1 (BDF1) mice
Details: endpoint: mean survival time, higher = longer survival
How it was run: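 Tumor cells were implanted, animals were treated, and survival was followed. The result divides the treated measurement by the vehicle-control measurement.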

[1] = dose: 100.0 mg/kg/injection, schedule: Q01DX009 (ip), vehicle: saline
[2] = dose: 100.0 mg/kg/injection, schedule: Q04DX003 (ip), vehicle: saline
[3] = dose: 200.0 mg/kg/injection, schedule: Q01DX009 (ip), vehicle: saline
[4] = dose: 200.0 mg/kg/injection, schedule: Q04DX003 (ip), vehicle: saline
[5] = dose: 100.0 mg/kg/injection, schedule: Q01DX009 (ip), vehicle: Klucel (hydroxypropylcellulose) (HPC)
[6] = dose: 200.0 mg/kg/injection, schedule: Q01DX009 (ip), vehicle: Klucel (hydroxypropylcellulose) (HPC)
[7] = dose: 400.0 mg/kg/injection, schedule: Q01DX009 (ip), vehicle: Klucel (hydroxypropylcellulose) (HPC)
[8] = dose: 12.5 mg/kg/injection, schedule: Q04DX003 (ip), vehicle: Klucel (hydroxypropylcellulose) (HPC)
[9] = dose: 25.0 mg/kg/injection, schedule: Q04DX003 (ip), vehicle: Klucel (hydroxypropylcellulose) (HPC)
[10] = dose: 50.0 mg/kg/injection, schedule: Q01DX009 (ip), vehicle: saline with Tween-80
[11] = dose: 50.0 mg/kg/injection, schedule: Q04DX003 (ip), vehicle: Klucel (hydroxypropylcellulose) (HPC)
[12] = dose: 100.0 mg/kg/injection, schedule: Q01DX009 (ip), vehicle: saline with Tween-80
[13] = dose: 100.0 mg/kg/injection, schedule: Q04DX003 (ip), vehicle: Klucel (hydroxypropylcellulose) (HPC)
[14] = dose: 200.0 mg/kg/injection, schedule: Q04DX003 (ip), vehicle: Klucel (hydroxypropylcellulose) (HPC)
[15] = dose: 100.0 mg/kg/injection, schedule: Q04DX003 (ip), vehicle: saline with Tween-80
[16] = dose: 200.0 mg/kg/injection, schedule: Q04DX003 (ip), vehicle: saline with Tween-80
[17] = dose: 400.0 mg/kg/injection, schedule: Q04DX003 (ip), vehicle: saline with Tween-80
[18] = dose: 100.0 mg/kg/injection, schedule: Q01DX001 (ip), vehicle: saline
[19] = dose: 200.0 mg/kg/injection, schedule: Q01DX001 (ip), vehicle: saline
[20] = dose: 400.0 mg/kg/injection, schedule: Q01DX001 (ip), vehicle: saline

Measured: T/C

CC12CCC(C(N)C1=O)C2(C)C (stereo not given)
inactive: [1] 103 % of control | [2] 98 % of control | [3] 105 % of control | [4] 98 % of control | dose: 400.0 mg/kg/injection, schedule: Q01DX009 (ip), vehicle: saline 94 % of control | dose: 400.0 mg/kg/injection, schedule: Q04DX003 (ip), vehicle: saline 97 % of control

N#CCCn1ccc2ccccc21
inactive: dose: 100.0 mg/kg/injection, schedule: Q04DX003 (ip), vehicle: other 96 % of control | dose: 200.0 mg/kg/injection, schedule: Q04DX003 (ip), vehicle: other 104 % of control | dose: 400.0 mg/kg/injection, schedule: Q04DX003 (ip), vehicle: other 106 % of control

O=c1c2ccccc2nc(-c2ccccc2)n1/N=C/c1ccccc1O
inactive: [5] 103 % of control | [6] 103 % of control | [7] 100 % of control

CS(=O)(=O)Oc1c(Br)cc(Br)c2cccnc12
inactive: dose: 100.0 mg/kg/injection, schedule: Q01DX001 (ip), vehicle: carboxymethylcellulose (CMC) 104 % of control | dose: 200.0 mg/kg/injection, schedule: Q01DX001 (ip), vehicle: carboxymethylcellulose (CMC) 98 % of control | dose: 400.0 mg/kg/injection, schedule: Q01DX001 (ip), vehicle: carboxymethylcellulose (CMC) 98 % of control

CC(C)CCNc1ccc(NCCC(C)C)cc1
inactive: dose: 12.5 mg/kg/injection, schedule: Q01DX009 (ip), vehicle: saline with Tween-80 100 % of control | [8] 104 % of control | dose: 25.0 mg/kg/injection, schedule: Q01DX009 (ip), vehicle: saline with Tween-80 100 % of control | [9] 96 % of control | [10] 96 % of control | [11] 96 % of control | dose: 75.0 mg/kg/injection, schedule: Q01DX009 (ip), vehicle: alcohol 86 % of control

c1ccc(CSc2ncnc3nc[nH]c23)nc1
inactive: dose: 50.0 mg/kg/injection, schedule: Q04DX003 (ip), vehicle: saline sonified 116 % of control | dose: 100.0 mg/kg/injection, schedule: Q04DX003 (ip), vehicle: saline sonified 113 % of control

Cc1c2ccccc2c(CN(C)CC(=O)O)c2ccccc12
inactive: [10] 92 % of control | [12] 90 % of control | dose: 200.0 mg/kg/injection, schedule: Q01DX009 (ip), vehicle: saline with Tween-80 92 % of control

CCOC(=O)c1csc(/C=C/c2ccc([N+](=O)[O-])o2)n1
inactive: [13] 89 % of control | [14] 92 % of control

COc1ccc(C2(C(=O)O)CC2)cc1
inactive: [15] 96 % of control | [16] 97 % of control | [17] 94 % of control

CCCCCCCCCCCCCCC(F)C(=O)OC (stereo not given)
inactive: dose: 100.0 mg/kg/injection, schedule: Q01DX009 (sc), vehicle: olive oil, sesame oil, peanut oil 94 % of control | dose: 100.0 mg/kg/injection, schedule: Q04DX003 (sc), vehicle: olive oil, sesame oil, peanut oil 102 % of control | dose: 200.0 mg/kg/injection, schedule: Q04DX003 (sc), vehicle: olive oil, sesame oil, peanut oil 113 % of control | dose: 400.0 mg/kg/injection, schedule: Q04DX003 (sc), vehicle: olive oil, sesame oil, peanut oil 109 % of control

CC(O)C(=O)COP(=O)(O)O (stereo not given)
inactive: [18] 96 % of control | [19] 102 % of control | [20] 96 % of control

C[n+]1ccc(/C=C/c2ccc(Cl)c(Cl)c2)cc1
inactive: dose: 3.0 mg/kg/injection, schedule: Q01DX009 (ip), vehicle: Klucel (hydroxypropylcellulose) (HPC) 105 % of control | dose: 6.0 mg/kg/injection, schedule: Q01DX009 (ip), vehicle: Klucel (hydroxypropylcellulose) (HPC) 93 % of control | dose: 12.0 mg/kg/injection, schedule: Q01DX009 (ip), vehicle: Klucel (hydroxypropylcellulose) (HPC) 93 % of control | [8] 104 % of control

CCCCCCCCC/C=C(\CCCCCCCCCC)c1cc(C)ccc1C
inactive: dose: 12.5 mg/kg/injection, schedule: Q04DX002 (ip), vehicle: saline with Tween-80 94 % of control

COC(=O)/C=C\C(=O)O (tested in a mixture with another compound)
inactive: dose: 15.5 mg/kg/injection, schedule: Q#A X Z (oral), vehicle: carboxymethylcellulose (CMC) 98 % of control | dose: 31.25 mg/kg/injection, schedule: Q#A X Z (ip), vehicle: carboxymethylcellulose (CMC) 101 % of control | dose: 31.5 mg/kg/injection, schedule: Q#A X Z (oral), vehicle: carboxymethylcellulose (CMC) 100 % of control | dose: 63.0 mg/kg/injection, schedule: Q#A X Z (oral), vehicle: carboxymethylcellulose (CMC) 100 % of control | dose: 126.0 mg/kg/injection, schedule: Q#A X Z (oral), vehicle: carboxymethylcellulose (CMC) 100 % of control

Cn1c(CC(O)(C(F)(F)F)C(F)(F)F)c(C(O)(C(F)(F)F)C(F)(F)F)c2ccccc21
inactive: dose: 5.0 mg/kg/injection, schedule: Q01DX009 (ip), vehicle: saline with Tween-80 100 % of control | dose: 10.0 mg/kg/injection, schedule: Q01DX009 (ip), vehicle: saline with Tween-80 94 % of control

C/C(Cc1cc(C)[nH]c(=S)n1)=N\NC(N)=O
inactive: [10] 92 % of control | [12] 92 % of control

O=[N+]([O-])c1cccc(/C=C/C=C/c2c(Cl)cccc2Cl)c1
inactive: [18] 91 % of control | [19] 94 % of control | [20] 100 % of control

CCOC(=O)CNc1ccc(Cl)c(C)c1
inactive: dose: 100.0 mg/kg/injection, schedule: Q04DX002 (ip), vehicle: Klucel (hydroxypropylcellulose) (HPC) 111 % of control | dose: 200.0 mg/kg/injection, schedule: Q04DX002 (ip), vehicle: Klucel (hydroxypropylcellulose) (HPC) 107 % of control | dose: 400.0 mg/kg/injection, schedule: Q04DX002 (ip), vehicle: Klucel (hydroxypropylcellulose) (HPC) 111 % of control

NNc1nncn1N
inactive: dose: 50.0 mg/kg/injection, schedule: Q01DX009 (ip), vehicle: saline 101 % of control | [1] 102 % of control | [2] 97 % of control | [3] 103 % of control | [4] 94 % of control

CCOc1ccc([N+](=O)[O-])cc1CNCCCl
inactive: [9] 102 % of control | [11] 98 % of control | [13] 98 % of control and 104 % of control

CN(C)c1ccc(C(=O)c2ccccc2)cc1
inactive: dose: 50.0 mg/kg/injection, schedule: Q01DX009 (ip), vehicle: Klucel (hydroxypropylcellulose) (HPC) 101 % of control | [5] 108 % of control | [13] 100 % of control | [6] 95 % of control | [14] 105 % of control | [7] 102 % of control | dose: 400.0 mg/kg/injection, schedule: Q04DX003 (ip), vehicle: Klucel (hydroxypropylcellulose) (HPC) 100 % of control

COc1cc(/C=C\C(=O)O)cc(Cl)c1O
inactive: dose: 50.0 mg/kg/injection, schedule: Q01DX009 (ip), vehicle: saline + alcohol 94 % of control | dose: 100.0 mg/kg/injection, schedule: Q01DX009 (ip), vehicle: saline + alcohol 101 % of control | dose: 200.0 mg/kg/injection, schedule: Q01DX009 (ip), vehicle: saline + alcohol 105 % of control

CCOC(=O)Cc1ccc2ccccc2c1
inactive: [15] 100 % of control | [16] 96 % of control | [17] 104 % of control
